From US6479435B1, “Diaryl ethers and processes for their preparation and herbicidal and desiccant compositions containing them” (ISK Americas Incorporated, priority 1997, dated 2002)

How the values were obtained:
Assay type in all cases: in vivo
[1] = test system: Johnsongrass (Sorghum halepense, SORHA); experiment: Pre-emerge greenhouse herbicide test, phytotoxicity rating; conditions: 14 days after application, rating scale 0-100
In short: (§1)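 Visual 0–100 injury rating (100 = all plants dead) taken 14 days after treatment. Rates of 125–1000 g ai/ha in acetone, 187 l/ha, were sprayed onto soil one day post-sowing; pots were surface-watered to incorporate, then bottom-watered.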

[2] = test system: barnyardgrass (Echinochloa crusgalli, ECHCG); experiment: as above; conditions: 14 days after application, rating scale 0-100
In short: as §1

[3] = test system: common ragweed (Ambrosia artemisiifolia L., AMBEL); experiment: as above; conditions: 14 days after application, rating scale 0-100
In short: as §1

[4] = test system: green foxtail (Setaria viridis, SETVI); experiment: as above; conditions: 14 days after application, rating scale 0-100
In short: as §1

[5] = test system: ivyleaf morningglory (Ipomoea hederacea, IPOHE); experiment: as above; conditions: 14 days after application, rating scale 0-100
In short: as §1

[6] = test system: lambsquarters (Chenopodium album, CHEAL); experiment: as above; conditions: 14 days after application, rating scale 0-100
In short: as §1

[7] = test system: large crabgrass (Digitaria sanguinalis, DIGSA); experiment: as above; conditions: 14 days after application, rating scale 0-100
In short: as §1

[8] = test system: redroot pigweed (Amaranthus retroflexus, AMARE); experiment: as above; conditions: 14 days after application, rating scale 0-100
In short: as §1

[9] = test system: sicklepod (Cassia obtusifolia, CASOB); experiment: as above; conditions: 14 days after application, rating scale 0-100
In short: as §1

[10] = test system: velvetleaf (Abutilon theophrasti, ABUTH); experiment: as above; conditions: 14 days after application, rating scale 0-100
In short: as §1

[11] = test system: field corn (Zea mays L., var. Dekalb 535, CORN); experiment: Pre-emerge greenhouse test, crop damage rating; conditions: 14 days after application, rating scale 0-100
In short: as §1

[12] = test system: upland rice (Oryza sp., var.Tebonnet, RICE); experiment: Pre-emerge greenhouse test, crop damage rating; conditions: 14 days after application, rating scale 0-100
In short: as §1

[13] = test system: soybean (Glycine max L., var. Pella 86, SOY); experiment: Pre-emerge greenhouse test, crop damage rating; conditions: 14 days after application, rating scale 0-100
In short: as §1

[14] = test system: common ragweed (Ambrosia artemisiifolia L., AMBEL); experiment: Post-emerge greenhouse herbicide test, phytotoxicity rating; conditions: 14 days after application
In short: (§2)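 Scores use a 0 (no damage) to 100 (complete kill) scale, taken 14 days after a foliar spray. Acetone solutions with 0.25% v/v non-ionic surfactant were applied by track sprayer at 187 l/ha and 63-1000 g ai/ha to bottom-watered 2-3 leaf plants.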

[15] = test system: Johnsongrass (Sorghum halepense, SORHA); experiment: as above; conditions: 14 days after application
In short: as §2

[16] = test system: barnyardgrass (Echinochloa crusgalli, ECHCG); experiment: as above; conditions: 14 days after application
In short: as §2

[17] = test system: green foxtail (Setaria viridis, SETVI); experiment: as above; conditions: 14 days after application
In short: as §2

[18] = test system: ivyleaf morningglory (Ipomoea hederacea, IPOHE); experiment: as above; conditions: 14 days after application
In short: as §2

[19] = test system: lambsquarters (Chenopodium album, CHEAL); experiment: as above; conditions: 14 days after application
In short: as §2

[20] = test system: large crabgrass (Digitaria sanguinalis, DIGSA); experiment: as above; conditions: 14 days after application
In short: as §2

[21] = test system: redroot pigweed (Amaranthus retroflexus, AMARE); experiment: as above; conditions: 14 days after application
In short: as §2

[22] = test system: sicklepod (Cassia obtusifolia, CASOB); experiment: as above; conditions: 14 days after application
In short: as §2

[23] = test system: velvetleaf (Abutilon theophrasti, ABUTH); experiment: as above; conditions: 14 days after application
In short: as §2

[24] = test system: field corn (Zea mays L., var. Dekalb 535, CORN); experiment: Post-emerge greenhouse test, crop damage rating; conditions: 14 days after application
In short: as §2

[25] = test system: upland rice (Oryza sp., var.Tebonnet, RICE); experiment: Post-emerge greenhouse test, crop damage rating; conditions: 14 days after application
In short: as §2

[26] = test system: soybean (Glycine max L., var. Pella 86, SOY); experiment: Post-emerge greenhouse test, crop damage rating; conditions: 14 days after application
In short: as §2

With `CN1CC(=O)N(c2cc(Oc3ncccn3)c(Cl)cc2F)C1=O` [Compound 8-3] the “phytotoxicity rating SORHA” value ([1]; 125 g ai/ha) was 0, the “phytotoxicity rating SORHA” value ([1]; 500 g ai/ha) was 40 and the “phytotoxicity rating ECHCG” value ([2]; 125 g ai/ha) was 0. The “phytotoxicity rating ECHCG” value ([2]; 500 g ai/ha) was 10, the “phytotoxicity rating AMBEL” value ([3]; 125 g ai/ha) was 20 and the “phytotoxicity rating AMBEL” value ([3]; 500 g ai/ha) was 60. For the same compound, the “phytotoxicity rating SETVI” value ([4]; 125 g ai/ha) was 0, the “phytotoxicity rating SETVI” value ([4]; 500 g ai/ha) was 70 and the “phytotoxicity rating IPOHE” value ([5]; 125 g ai/ha) was 10. The “phytotoxicity rating IPOHE” value ([5]; 500 g ai/ha) was 60, the “phytotoxicity rating CHEAL” value ([6]; 125 g ai/ha) was 80 and the “phytotoxicity rating CHEAL” value ([6]; 500 g ai/ha) was 100. For the same compound, the “phytotoxicity rating DIGSA” value ([7]; 125 g ai/ha) was 0, the “phytotoxicity rating DIGSA” value ([7]; 500 g ai/ha) was 90 and the “phytotoxicity rating AMARE” value ([8]; 125 g ai/ha) was 10. For the same compound, the “phytotoxicity rating AMARE” value ([8]; 500 g ai/ha) was 100, the “phytotoxicity rating CASOB” value ([9]; 125 g ai/ha) was 0 and the “phytotoxicity rating CASOB” value ([9]; 500 g ai/ha) was 0. For the same compound, the “phytotoxicity rating ABUTH” value ([10]; 125 g ai/ha) was 20, the “phytotoxicity rating ABUTH” value ([10]; 500 g ai/ha) was 70 and the “crop damage rating CORN” value ([11]; 125 g ai/ha) was 0. For the same compound, the “crop damage rating CORN” value ([11]; 500 g ai/ha) was 5, the “crop damage rating RICE” value ([12]; 125 g ai/ha) was 0 and the “crop damage rating RICE” value ([12]; 500 g ai/ha) was 30. For the same compound, the “crop damage rating SOY” value ([13]; 125 g ai/ha) was 0, the “crop damage rating SOY” value ([13]; 500 g ai/ha) was 10 and the “AMBEL phytotoxicity rating (0-100)” value ([14]; 63 g al/ha) was 20. For the same compound, the “AMBEL phytotoxicity rating (0-100)” value ([14]; 500 g al/ha) was 60, the “SORHA phytotoxicity rating (0-100)” value ([15]; 63 g al/ha) was 0 and the “SORHA phytotoxicity rating (0-100)” value ([15]; 500 g al/ha) was 0. For the same compound, the “ECHCG phytotoxicity rating (0-100)” value ([16]; 63 g al/ha) was 0, the “ECHCG phytotoxicity rating (0-100)” value ([16]; 500 g al/ha) was 0 and the “SETVI phytotoxicity rating (0-100)” value ([17]; 63 g al/ha) was 0. For the same compound, the “SETVI phytotoxicity rating (0-100)” value ([17]; 500 g al/ha) was 0, the “IPOHE phytotoxicity rating (0-100)” value ([18]; 63 g al/ha) was 60 and the “IPOHE phytotoxicity rating (0-100)” value ([18]; 500 g al/ha) was 90. For the same compound, the “CHEAL phytotoxicity rating (0-100)” value ([19]; 63 g al/ha) was 50, the “CHEAL phytotoxicity rating (0-100)” value ([19]; 500 g al/ha) was 85 and the “DIGSA phytotoxicity rating (0-100)” value ([20]; 63 g al/ha) was 0. For the same compound, the “DIGSA phytotoxicity rating (0-100)” value ([20]; 500 g al/ha) was 0, the “AMARE phytotoxicity rating (0-100)” value ([21]; 63 g al/ha) was 20 and the “AMARE phytotoxicity rating (0-100)” value ([21]; 500 g al/ha) was 75. For the same compound, the “CASOB phytotoxicity rating (0-100)” value ([22]; 63 g al/ha) was 0, the “CASOB phytotoxicity rating (0-100)” value ([22]; 500 g al/ha) was 0 and the “ABUTH phytotoxicity rating (0-100)” value ([23]; 63 g al/ha) was 10. The “ABUTH phytotoxicity rating (0-100)” value ([23]; 500 g al/ha) was 75, the “CORN crop damage rating (0-100)” value ([24]; 63 g al/ha) was 0 and the “CORN crop damage rating (0-100)” value ([24]; 500 g al/ha) was 0. For the same compound, the “RICE crop damage rating (0-100)” value ([25]; 63 g al/ha) was 0, the “RICE crop damage rating (0-100)” value ([25]; 500 g al/ha) was 0 and the “SOY crop damage rating (0-100)” value ([26]; 63 g al/ha) was 10. For the same compound, the “SOY crop damage rating (0-100)” value ([26]; 500 g al/ha) was 50.
For `O=C1C2CCCCN2C(=O)N1c1cc(Oc2ncccc2C(F)(F)F)c(Cl)cc1F` (stereo not drawn) [Compound 8-4], the “phytotoxicity rating SORHA” value ([1]; 500 g ai/ha) was 70, the “phytotoxicity rating ECHCG” value ([2]; 125 g ai/ha) was 10 and the “phytotoxicity rating ECHCG” value ([2]; 500 g ai/ha) was 30. For the same compound, the “phytotoxicity rating AMBEL” value ([3]; 125 g ai/ha) was 20, the “phytotoxicity rating AMBEL” value ([3]; 500 g ai/ha) was 0 and the “phytotoxicity rating SETVI” value ([4]; 125 g ai/ha) was 50. For the same compound, the “phytotoxicity rating SETVI” value ([4]; 500 g ai/ha) was 100, the “phytotoxicity rating IPOHE” value ([5]; 125 g ai/ha) was 0 and the “phytotoxicity rating IPOHE” value ([5]; 500 g ai/ha) was 0. For the same compound, the “phytotoxicity rating CHEAL” value ([6]; 125 g ai/ha) was 70, the “phytotoxicity rating CHEAL” value ([6]; 500 g ai/ha) was 100 and the “phytotoxicity rating DIGSA” value ([7]; 125 g ai/ha) was 30. The “phytotoxicity rating DIGSA” value ([7]; 500 g ai/ha) was 90, the “phytotoxicity rating AMARE” value ([8]; 125 g ai/ha) was 100 and the “phytotoxicity rating AMARE” value ([8]; 500 g ai/ha) was 100. The “phytotoxicity rating CASOB” value ([9]; 125 g ai/ha) was 30, the “phytotoxicity rating CASOB” value ([9]; 500 g ai/ha) was 90 and the “phytotoxicity rating ABUTH” value ([10]; 125 g ai/ha) was 100. The “phytotoxicity rating ABUTH” value ([10]; 500 g ai/ha) was 100, the “crop damage rating CORN” value ([11]; 125 g ai/ha) was 0 and the “crop damage rating CORN” value ([11]; 500 g ai/ha) was 0. The “crop damage rating RICE” value ([12]; 125 g ai/ha) was 0, the “crop damage rating RICE” value ([12]; 500 g ai/ha) was 30 and the “crop damage rating SOY” value ([13]; 125 g ai/ha) was 0. For the same compound, the “crop damage rating SOY” value ([13]; 500 g ai/ha) was 0, the “AMBEL phytotoxicity rating (0-100)” value ([14]; 63 g al/ha) was 0 and the “AMBEL phytotoxicity rating (0-100)” value ([14]; 500 g al/ha) was 0. For the same compound, the “SORHA phytotoxicity rating (0-100)” value ([15]; 500 g al/ha) was 0, the “ECHCG phytotoxicity rating (0-100)” value ([16]; 63 g al/ha) was 0 and the “ECHCG phytotoxicity rating (0-100)” value ([16]; 500 g al/ha) was 0. The “SETVI phytotoxicity rating (0-100)” value ([17]; 63 g al/ha) was 10, the “SETVI phytotoxicity rating (0-100)” value ([17]; 500 g al/ha) was 10 and the “IPOHE phytotoxicity rating (0-100)” value ([18]; 63 g al/ha) was 50. For the same compound, the “IPOHE phytotoxicity rating (0-100)” value ([18]; 500 g al/ha) was 60, the “CHEAL phytotoxicity rating (0-100)” value ([19]; 63 g al/ha) was 70 and the “CHEAL phytotoxicity rating (0-100)” value ([19]; 500 g al/ha) was 75. For the same compound, the “DIGSA phytotoxicity rating (0-100)” value ([20]; 63 g al/ha) was 0, the “DIGSA phytotoxicity rating (0-100)” value ([20]; 500 g al/ha) was 0 and the “AMARE phytotoxicity rating (0-100)” value ([21]; 63 g al/ha) was 60. The “AMARE phytotoxicity rating (0-100)” value ([21]; 500 g al/ha) was 100, the “CASOB phytotoxicity rating (0-100)” value ([22]; 63 g al/ha) was 20 and the “CASOB phytotoxicity rating (0-100)” value ([22]; 500 g al/ha) was 40. For the same compound, the “ABUTH phytotoxicity rating (0-100)” value ([23]; 63 g al/ha) was 70, the “ABUTH phytotoxicity rating (0-100)” value ([23]; 500 g al/ha) was 85 and the “CORN crop damage rating (0-100)” value ([24]; 63 g al/ha) was 5. The “CORN crop damage rating (0-100)” value ([24]; 500 g al/ha) was 10, the “RICE crop damage rating (0-100)” value ([25]; 63 g al/ha) was 0 and the “RICE crop damage rating (0-100)” value ([25]; 500 g al/ha) was 0. For the same compound, the “SOY crop damage rating (0-100)” value ([26]; 63 g al/ha) was 20 and the “SOY crop damage rating (0-100)” value ([26]; 500 g al/ha) was 30.
